Assay [1] has as its system K562 cells. Particulars: cited from earlier work.
In assay [2] the test system is STAT5. To be noted: K562 cells, 30-100 μM; cited from earlier work.
For assay [3], the system named is K562 cells. Description: K562-based MTT cell viability assay. Also noted: species or system human. Particulars: 48 h, read-out: Activity (IC50, reduction of cell viability). Here is the method: (§1) Cell viability was assayed by measuring the mitochondrial reduction of the tetrazolium salt 3-(4,5-methyltiazol-2yl)-2,5diphenyl-tetrazolium bromide] (MTT) (Applichen; A2231,0010) (Mosmann T. J Immunol Methods. 1983 16; 65(1-2):55-63; Chuan Y-C et al 2010. Oncogene. 29 (10), 1531-1542. Cells were seeded in 96-well plates in medium supplemented with 10% FBS (Lonza Cat. No: 14-502F), 2 mM L-Glut (Lonza Cat. No: BE17-605E) and 100 U/ml PEST (Lonza Cat. No: DE17-605E) at a cell density of 5000-20000 cells/well. Cells were seeded at a density according to their exponential growth phase. Vehicle (0.05% DMSO) or drug were added to culture medium at the indicated concentrations (10 to 0.01 microM) during 48 h. Then, MTT (0.3 mg/ml) was added to cells following by incubation for 2-4 h at 37° C. in the dark. The medium was then discarded and the formazan precipitate was solubilized by addition of 20% SDS (Sigma; L-5750) in 0.02N HCl (Panreac; 131020.1611) for 12-16 h. The optical density was measured at 595 nm with the iMark Microplate Reader (BioRad, USA). Data was expressed as percent growth above the level in controls and the results in figures were plotted as means±SEM of each test point from 3 replicates.
(§2) Statistical analysis. The concentration of drug that provokes 50% reduction of cell viability (IC50) was determined by using non-linear regression analysis and data were fitted to a log concentration vs normalized response curve in GraphPad software v5 (San Diego, Calif.).

For a further assay, the system named is HEL cells. The experiment in a line: HEL-based MTT cell viability assay. Further details: species or system human. Particulars: 48 h, read-out: Activity (IC50, reduction of cell viability). Here is the method:
as §1, §2
(Tetrazolium assays rely on reduction of a dye to a coloured formazan, in cell work by metabolically active cells.)

The test system of the next assay is JAK2. Description: JAK2 phosphorylation western blot assay. It is filed as cell-based, human. Particulars: 10 microM, HEL or K562 cells (table does not say which). Here is the method: (§3) The Human Erythroleukemia cell line HEL and the human Chronic Myeloid Leukemia cell line K562 were cultured in RPM I 1640 medium containing 10% fetal bovine serum (FBS) and 50 U/ml penicillin/50 U/ml streptomycin at 37° C. in a 5% CO2 humidified atmosphere to a density of 300.000 viable cells/mL in presence of WP1066 (positive control of phosphorylation inhibition) (Verstovsek et al., 2008) or CM-363 at concentrations of 1, 5 and 10 μM. Cell culture reagents were all obtained from BioWhittaker® (Lonza, Verniers, Belgium). Cell growth and viability was determined by propidium iodide (fluorescent dye) exclusion method using the Accuchip 4× Counting Kit and the ADAM automatic cell counter (Digital-Bio, NanoEntek, Ic., Washington St, Mass., USA).As a control of unspecific phosphorylation, some cells in each experiment were exposed to vehicle (negative control of phosphorylation inhibition) (0.1% DMSO).
(§4) For total protein extraction, cells were scraped with RIPA 1× lysis buffer (25 mM Tris-HCl pH 7.6, 150 mM NaCl, 1% NP-40, 1% sodium deoxycholate, 0.1% SDS, no. 89900, Thermo Scientific, Rockford, Ill., USA) supplemented with 1× protease and 1× phosphatase inhibitor cocktails (100× Halt™ Protease Inhibitor Cocktail, no. 87786 and 100× Halt Phosphatase Inhibitor Cocktail, no. 78420, both from Thermo Scientific, Rockford, Ill., USA). An aliquot of each extract was preserved for protein quantification by bicinchoninic acid assay (Pierce® BCA Protein Assay Kit, no. 23225, Thermo Scientific, Rockford, Ill., USA).
(§5) Proteins were solubilized in sample buffer containing 0.0625 M Tris-HCl, pH 6.8, 2.3% (wt/vol) SDS, 10% (vol/vol) glycerol, 5% (vol/vol) f3-mercaptoethanol, and 0.001% (wt/vol) bromophenol blue and boiled at 95° C. for 5 min. Equal amounts (50 μg) of each sample were electrophoresed on 8-10% sodium dodecyl sulfate-polyacrylamide gel electrophoresis (SDS-PAGE) and transferred to nitrocellulose membranes (iBlot® Gel Transfer Stacks, Nitrocellulose, no. IB4010-02, Invitrogen, Barcelona, Spain) as described previously (Fernandez, L, et al., Endocrinology, 13, 1815-1824, 1998; B. Guerra et al., J. Neurochem, 91, 99-109, 2004; B. Guerra et al., J. Appl. Physiol., 102, 1786-1792, 2007; B. Guerra et al., J. Appl. Physiol., 111, 715-725, 2011). The nitrocellulose membranes were then removed from the iBlot® Dry GelTransfer Device (no. IB1001EU, Invitrogen, Barcelona, Spain) and placed in a Ponceau S staining solution (0.5% Ponceau S and 1% glacial acetic acid in water) to verify equal loading of protein in the control and treated samples. After the membranes were stained for 5 min, they were rinsed for 2 min and examined. Equal loading of protein was verified, and the membranes were rinsed for an additional 10 min and immunoscreened. Membranes were blocked with 5% blotting grade blocker nonfat dry milk in Tris Buffered Saline with 0.05% Tween 20 (TBST; blotto-blocking buffer) for at least […]) at room temperature. They were washed thrice in TBS with 0.1% Tween 20 (TBST-0.1). Next, the membranes were incubated over night at 4° C. with the appropriate anti-phospho-antibodies (described below) all diluted (1:1000) in 1% bovine serum albumin (BSA)-1% blotto in TBST (BSA-blotto blocking buffer). […] Membranes were stripped of bound antibodies by incubation in stripping buffer (Restore™ Western Blot Stripping Buffer, no. 21059, Thermo Scientific, Rockford, Ill., USA) at room temperature for 30 min with agitation. Membranes were washed for 3×10 min in TBST-0.1, blocked with blotto-blocking buffer for at least 1 h and re-probed with the corresponding anti-total kinase antibodies (described below) all diluted (1:1000) in blotto-blocking buffer. […]
In general terms: A western blot detects proteins with antibodies after separation by electrophoresis.

The subject of assay [4] is STAT5 transcription (pSPI-GLE1-luc) in HEK-GHR cells. The experiment in a line: HEK-GHR STAT5 transcription assay (luciferase reporter, rhGH stimulated). It is filed as cell-based, human. To be noted: compound 45 minutes before 50 nM rhGH, six hours, read-out: Activity (IC50, reduction of luciferase activity). The text has this:
Plasmids: The full-length GHR was subcloned into pcDNA1/ampicillin (Invitrogen) as described previously (Ross R J, Esposito N, Shen X Y, et al., Mol Endocrinol 1997, 11:265-73). The pSPI-GLE1 (serine protease inhibitor 2.1 GAS-like element 1)-luc reporter construct was generated by subcloning the Stat5-binding element from serine protease inhibitor gene together with a minimal thymidine kinase promoter into the pGL2 plasmid (Promega), which contains the firefly luciferase cDNA (Wood T J, Sliva D, Lobie P E, et al. J Biol Chem 1995, 270:9448-53).
Cell culture: HEK-GHR cell line was maintained in Dulbecco's Modified Eagle Medium (DMEM)/F12 supplemented with 10% fetal bovine serum (FBS) and 50 U/ml penicillin/50 U/ml streptomycin. The cells were maintained in a humidified incubator with 5% CO2 at 37° C. Cell culture reagents were obtained from PAA laboratories. The HEK-GHR cell line is a stable clone generated and kindly donated by Prof. Richard Ross (Clinical Sciences, Northern General Hospital, Sheffield, UK). Briefly, HEK-GHR cell line was generated in HEK 293 cells (human kidney embryonal cell line) by transfection with the calcium phosphate procedure of the GHR plasmid with pcDNA3/Neo (Invitrogen). Selection was made using G418 (400 ug/ml, Sigma) (Maamra M, Finidori J, Von Laue S, et al., J Biol Chem 1999, 274(21):14791-8).
Luciferase reporter assay: Transcription assays were performed in HEK-GHR. The HEK-GHR cells were co-transfected with Stat5 luciferase (pSPI-GLE1-luc) reporter vector together with a plasmid constitutively expressing beta-galactosidase by using Metafectene Pro as described by the manufacturer (Biontex Laboratories GmbH, Munich, Germany). Following transfection, HEK-GHR cells were serum-starved for 20 h. Cells were then treated with vehicle (0.1% DMSO) or the indicated compound for 45 minutes prior to the addition of 50 nM recombinant human Growth Hormone (rhGH) (Norditropin, Novo Nordisk) to the medium. Six hours following rhGH addition, cells were harvested with Passive Lysis Buffer (Promega), and levels of luciferase were measured using Luciferase Assay System as described by the manufacturer (Promega). The Galacto-Light Plus System (Applied Biosystems) was used to measure beta-galactosidase activity.
Statistical analysis. The concentration of drug that provokes 50% reduction of luciferase activity (IC50) was determined by using non-linear regression analysis and data were fitted to a log concentration vs normalized response curve in GraphPad software v5 (San Diego, Calif.).
On the technique in general: Reporter assays use an easily measured gene product as a stand-in for the process of interest.

For assay [5], the system named is STAT5. Description: STAT5 phosphorylation western blot assay. The assay is classed as cell-based, human. To be noted: 10 microM, HEL or K562 cells (table does not say which). Here is the method: as §3, §4, §5

Results on two compounds are retold here after patent US20150175585A1, “FUSED QUINONIC COMPOUNDS” (CENTRO ATLANTICO DEL MEDICAMENTO S.A (CEAMED, S.A.), priority 2012, published 2015).

The structures appear in SMILES notation.

By IC50 is commonly meant the midpoint of a concentration-inhibition curve.

On to `COc1cc2ncnc(Nc3ccc(O)cc3)c2cc1OC` [WHI-P131], for which, in the assay on K562 cells [1], the “cell cycle phases in flow cytometry experiments” value was “dose-dependent decrease in G1 and S phases and an increase in G2/M phases”. In the assay on STAT5 [2], the “tyrosine phosphorylation of STAT5” value is “caused a reduction in tyrosine phosphorylation of STAT5”.
For `CC1(C)CC(=O)C2=C(C1)NC1=C(C(=O)c3ccncc3C1=O)C2c1ccccc1` (stereo not shown) [Compound 13], the 50% inhibitory concentration (IC50) was less than 3000 nM in the assay on K562 cells [3], less than 3000 nM in the assay on HEL cells and less than 5000 nM in assay [4]. Further, in the assay on JAK2, the “Activity (inhibition of JAK2 phosphorylation)” value is “++ (++represents an inhibition at 10 microM > 50%)”. In addition, the “Activity (inhibition of STAT5 phosphorylation)” value in the assay on STAT5 [5] is reported as “+++ (+++represents an inhibition at 10 microM > 75%)”.
